From patent US20230219942A1, “COMPOUNDS COMPRISING A THREE RING CORE AS PD-1/PD-L1 BLOCKERS” (RELIVE THERAPEUTICS INC., priority 2020, published 2023)
Read-outs that look alike come from different tables or passages of the source.

Columns and labels:
PD-1 = PD-1 inhibition assay, literature value; read-out: IC50 previously reported; cited from earlier work
PD-1/PD-L1 = PD-1/PD-L1 (Homo sapiens, UniProt Q9NZQ7); conditions: Table 11; known small molecule PD-1/PD-L1 blockers; cited from earlier work
PD-1/PD-L1 interaction = biological target: T1, PD-1/PD-L1 interaction (Homo sapiens, UniProt Q9NZQ7); assay: Cisbio PD-1/PD-L1 Homogeneous Time-Resolved Fluorescence (HTRF) binding assay; conditions: for IC50: read-out: Reported IC50
T1 construct: Tag1 or Tag2 (undisclosed kit tag); purchased Cisbio
Description: The ability of compounds of the disclosure to inhibit the PD-1/PD-L1 interaction was investigated using a Cisbio PD-1/PD-L1 Homogeneous Time-Resolved Fluorescence (HTRF) binding assay (https://ca.cisbio.net/human-pd1-pd-l1-biochemical-binding-assay-44666).
With the assay, the interaction between PD-L1 and PD-1 is detected by using anti-Tag1 labeled with Europium (HTRF donor) and anti-Tag2 labeled with XL665 (HTRF acceptor). When the donor and acceptor antibodies are brought into close proximity due to PD-L1 and PD-1 binding, excitation of the donor antibody triggers fluorescence resonance energy transfer (FRET) towards the acceptor antibody, which in turn emits specifically at 665 nm. This specific signal is directly proportional to the extent of PD-1/PD-L1 interaction. Thus, a compound blocking the PD-1/PD-L1 interaction causes a reduction in the HTRF signal.
The assay was carried out in accordance with the product insert.

[1] = Table 10, * n = 7, median, P1 and P2 are different isomers
[2] = Table 10, same result in μM, P1 and P2 are different isomers

T1 sequence (Q9NZQ7 19-238 limits assumed): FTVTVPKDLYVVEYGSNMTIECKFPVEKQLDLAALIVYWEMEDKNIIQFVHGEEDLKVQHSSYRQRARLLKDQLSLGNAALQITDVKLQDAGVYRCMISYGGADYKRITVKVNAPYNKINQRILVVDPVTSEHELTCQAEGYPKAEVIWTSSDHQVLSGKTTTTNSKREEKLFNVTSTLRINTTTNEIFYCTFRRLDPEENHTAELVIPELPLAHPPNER
Sequence of PD-1/PD-L1 (Q9NZQ7 19-290): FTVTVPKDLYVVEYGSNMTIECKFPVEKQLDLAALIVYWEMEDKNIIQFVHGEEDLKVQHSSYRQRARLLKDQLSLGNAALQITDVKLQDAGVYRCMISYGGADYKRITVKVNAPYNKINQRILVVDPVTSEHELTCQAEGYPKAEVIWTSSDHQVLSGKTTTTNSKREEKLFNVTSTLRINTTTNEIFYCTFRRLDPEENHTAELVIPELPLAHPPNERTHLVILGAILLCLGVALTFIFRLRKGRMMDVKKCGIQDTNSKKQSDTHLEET

Row | SMILES | IC50 (PD-1/PD-L1 interaction; Table 9) | IC50 (PD-1/PD-L1 interaction; Table 9, same result in μM) | IC50 (PD-1/PD-L1 interaction; [1]) | IC50 (PD-1/PD-L1 interaction; [2]) | also measured
1 | COc1cc(OCc2cccc(-c3ccccc3)c2C)cc(OC)c1CN1CCCCC1C(=O)O (stereo not shown) [Compound S7911] | – | – | – | – | IC50 (PD-1): 6 nM
2 | Cc1c(Nc2nc(C(F)F)nc3cc(CN4CC[C@](C)(O)C4)cnc23)cccc1-c1cccc(-c2nc3cc(CN4CCC(C(=O)O)CC4)cc(C#N)c3o2)c1C [INB086550] | – | – | – | – | KD/IC50 (PD-1/PD-L1): <10 nM
3 | CS(=O)(=O)c1cncc(COc2cc(OCc3cccc(-c4cccc(-c5ccc6c(c5)C[C@@H](N)C6)c4Cl)c3Cl)c(Br)cc2CN2CCCC[C@H]2C(=O)O)c1 [GS-4224, Example A] | – | – | – | – | KD/IC50 (PD-1/PD-L1): 0.09 nM
4 | COc1cc(C(=O)N2CCN(Cc3csc(NC[C@@H]4CCCN4Cc4ccc(S(C)(=O)=O)cc4)n3)CC2)cc(OC)c1OC [Compound A308] | 0.69 µM | 0.69 µM | – | – | –
5 | O=C(CCc1nc2ccccc2[nH]1)N1CCN(Cc2csc(NC[C@@H]3CCCN3Cc3ccc(F)cc3)n2)CC1 [Compound 2678-3] | – | – | – | – | IC50 (PD-1/PD-L1 interaction; Table 8, Run: Pure): 7 µM
6 | O=C(c1ccco1)N1CCN(Cc2csc(NC[C@@H]3CCCN3CCCc3nc4ccccc4[nH]3)n2)CC1 [Compound 2678-72] | – | – | – | – | IC50 (PD-1/PD-L1 interaction; Table 8, Run: Pure (70% Pure)): 11 µM
7 | COc1cc(C(=O)N2CCN([C@H](C)c3csc(NC[C@@H]4CCCN4Cc4ccc(Br)cc4)n3)CC2)cc(OC)c1OC [Compound A603] | 0.11 µM | 0.11 µM | – | – | –
8 | COc1cc(C(=O)N2CCN(Cc3csc(NC[C@@H]4CCCN4Cc4ccc(C(F)(F)F)cc4)n3)CC2)cc(OC)c1OC [Compound A302] | 0.14 µM | 0.14 µM | – | – | –
9 | COc1cc(CN2CCN(Cc3csc(NCC4CCCN4Cc4ccccc4)n3)CC2)cc(OC)c1OC (stereo not shown) [Compound A505] | > 50 µM | > 50 µM | – | – | –
10 | COc1cc(CN2CCN(Cc3csc(NCC4CCCN4C(C)c4ccc(Br)cc4)n3)CC2)cc(OC)c1OC (stereo not shown) [Compound A601] | 0.159 µM | 0.16 µM | – | – | –
11 | COc1cc(C(=O)N2CCN(Cc3nsc(NC[C@@H]4CCCN4Cc4ccc(Br)cc4)n3)CC2)cc(OC)c1OC [Compound A702] | – | – | 0.015 µM | 0.015 µM | –
12 | COc1cc(C(=O)N2CCN(Cc3csc(NC[C@@H]4CCCN4Cc4ccc(Br)cc4)n3)CC2)cc(OC)c1OC [Compound 2678-10] | 0.051 µM | 0.051 µM | – | – | IC50 (PD-1/PD-L1 interaction; Table 8, Run: Pure): 0.33 µM; KD/IC50 (PD-1/PD-L1 interaction; Table 11, compound of the disclosure): 330 nM
13 | COc1cc(C(=O)N2CCN(Cc3csc(NCC4CC(OCc5ccccc5)CN4Cc4ccc(Br)cc4)n3)CC2)cc(OC)c1OC (stereo not shown) [Compound 2678-80] | – | – | – | – | IC50 (PD-1/PD-L1 interaction; Table 8, Run: Pure): 0.5 µM
14 | COc1cc(CN2CCN(Cc3csc(NCC4CCCN4CC4CC4)n3)CC2)cc(OC)c1OC (stereo not shown) [Compound A506] | > 50 µM | > 50 µM | – | – | –

More lines, main results first:

Row | IC50 (PD-1/PD-L1 interaction; Table 9) | IC50 (PD-1/PD-L1 interaction; Table 9, same result in μM) | IC50 (PD-1/PD-L1 interaction; [1]) | IC50 (PD-1/PD-L1 interaction; [2]) | SMILES | also measured
15 | – | – | 0.025 µM | 0.025 µM | COc1cc(C(=O)N2CCN(Cc3nsc(NC[C@@H]4CCCN4Cc4ccc(C(F)F)cc4)n3)CC2)cc(OC)c1OC [Compound B316] | –
16 | – | – | 0.014 µM | 0.014 µM | COc1cc(C(=O)N2CCN([C@H](C)c3nsc(NC[C@@H]4CCCN4Cc4ccc(Br)cc4)n3)CC2)cc(OC)c1OC [Compound B805] | –
17 | 0.353 µM | 0.35 µM | – | – | COc1cc(C(=O)N2CCN(Cc3csc(NC[C@@H]4CCCN4Cc4ccc(C(F)F)cc4)n3)CC2)cc(OC)c1OC [Compound B315] | –
18 | – | – | 0.018 µM | 0.018 µM | COc1cc(C(=O)N2CCN(Cc3nsc(NC[C@@H]4CCCN4Cc4ccc(Cl)cc4)n3)CC2)cc(OC)c1OC [Compound B314] | –
19 | – | – | 0.044 µM | 0.044 µM | COc1cc(C(=O)N2CCN(Cc3nsc(NC[C@@H]4C[C@@H](O)CN4[C@@H](C)c4ccc(Br)cc4)n3)CC2)cc(OC)c1OC [Compound B910] | –
20 | – | – | 8 µM | 8 µM | COc1cc(C(=O)N2CCN(Cc3nccc(NC[C@@H]4CCCN4Cc4ccc(Br)cc4)n3)CC2)cc(OC)c1OC [Compound B709] | –
21 | – | – | 0.033 µM | 0.033 µM | COc1cc(C(=O)N2C[C@H](C)N(Cc3nsc(NC[C@@H]4C[C@@H](O)CN4Cc4ccc(Br)cc4)n3)C[C@@H]2C)cc(OC)c1OC [Compound B911] | –
22 | 0.205 µM | 0.21 µM | – | – | COc1cc(C(=O)N2CCN(Cc3csc(NC[C@@H]4CCCN4Cc4ccc(Cl)cc4)n3)CC2)cc(OC)c1OC [Compound B313] | –
